Measured values as given in the NIST ThermoML archive (doi:10.1021/je900661c).
“And” between values parts separate entries of the source, which are not always exact repeats. Identical values can stand only once. ± gives the expanded uncertainty stated by the source.

Assay: molar heat capacity at constant pressure
Conditions: 5000 kPa, Liquid, thermal relaxation

| molar heat capacity at constant pressure (310 K) [J/K/mol] | molar heat capacity at constant pressure (315 K) [J/K/mol] | molar heat capacity at constant pressure (320 K) [J/K/mol] | molar heat capacity at constant pressure (325 K) [J/K/mol] | molar heat capacity at constant pressure (330 K) | molar heat capacity at constant pressure (335 K) [J/K/mol] | molar heat capacity at constant pressure (340 K) | SMILES | molar heat capacity at constant pressure (345 K) | molar heat capacity at constant pressure (350 K) [J/K/mol] |
| --- | --- | --- | --- | --- | --- | --- | --- | --- | --- |
| 136.15 ± 6.7 | 140.35 ± 7.6 | 145.39 ± 7.6 | 150.43 ± 7.6 | 155.47 ± 8.4 J/K/mol | 162.2 ± 8.4 | 173.96 ± 9.2 J/K/mol | CC(F)(F)F [1,1,1-trifluoroethane] | 189.93 ± 10 J/K/mol and 192.45 ± 10 J/K/mol | 224.39 ± 12 |
| 106.65 ± 5.7 | 109.77 ± 5.7 | 113.41 ± 5.7 | 119.65 ± 6.2 | 125.9 ± 6.8 J/K/mol | 138.9 ± 7.3 | 164.39 ± 8.3 J/K/mol | FCF [difluoromethane] |  |  |

| SMILES | molar heat capacity at constant pressure (310 K) [J/K/mol] | molar heat capacity at constant pressure (315 K) [J/K/mol] | molar heat capacity at constant pressure (320 K) [J/K/mol] | molar heat capacity at constant pressure (325 K) [J/K/mol] | molar heat capacity at constant pressure (330 K) | molar heat capacity at constant pressure (335 K) [J/K/mol] | molar heat capacity at constant pressure (340 K) | molar heat capacity at constant pressure (345 K) | molar heat capacity at constant pressure (350 K) [J/K/mol] |
| --- | --- | --- | --- | --- | --- | --- | --- | --- | --- |
| FC(F)C(F)(F)F [pentafluoroethane] | 154.83 ± 8.4 | 159.63 ± 8.4 | 163.23 ± 8.4 | 171.63 ± 8.4 | 182.43 ± 9.6 J/K/mol and 183.63 ± 9.6 J/K/mol | 193.23 ± 9.6 | 217.24 ± 11 J/K/mol and 212.44 ± 11 J/K/mol | 242.44 ± 13 J/K/mol | 282.05 ± 14 |
